Data from patent publication US8404708B2, “Dual NK1/NK3 receptor antagonists” (Hoffmann-La Roche Inc., priority 2004, dated 2013).

Key:
human NK1 receptor = human NK1 receptor (Homo sapiens, UniProt P25103); test: NK1 receptor binding, [3H]substance P displacement, CHO cell membranes; conditions: first value of the cell pKi NK1/NK3; human NK1 receptor, [3H]substance P
[1] = biological target: T1, Recombinant human NK3 (hNK3) receptor (Homo sapiens, UniProt P29371); test: NK3 receptor binding, [3H]SR142801 displacement, membrane preparations; conditions: second value of the cell pKi NK1/NK3; hNK3 receptor, [3H]SR142801
T1 construct: expressed in transfected cells
T1 sequence (P29371 1-465): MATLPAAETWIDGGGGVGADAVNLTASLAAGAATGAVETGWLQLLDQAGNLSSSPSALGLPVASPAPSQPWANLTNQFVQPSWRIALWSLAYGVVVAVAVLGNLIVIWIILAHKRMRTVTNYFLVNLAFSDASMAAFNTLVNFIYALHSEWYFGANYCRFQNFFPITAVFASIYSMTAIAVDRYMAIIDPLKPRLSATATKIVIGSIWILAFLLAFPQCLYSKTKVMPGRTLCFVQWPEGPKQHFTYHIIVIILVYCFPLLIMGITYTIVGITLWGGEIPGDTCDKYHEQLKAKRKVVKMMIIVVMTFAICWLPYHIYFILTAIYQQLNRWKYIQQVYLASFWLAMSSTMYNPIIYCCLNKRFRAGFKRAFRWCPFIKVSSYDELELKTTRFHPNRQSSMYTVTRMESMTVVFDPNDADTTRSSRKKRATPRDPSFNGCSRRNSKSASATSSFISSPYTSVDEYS
Procedure: Non specific binding was determined using 10 μM SB222200. Assay buffer consisted of Tris-HCl (50 mM, pH 7.4), BSA (0.1%), MnCl2 (4 mM) and phosphoramidon (1 μM). Membrane preparations of hNK3 receptors (approximately 2.5 μg/well in a 96 well plate) were used to initiate the incubation for 90 min at room temperature. This assay was terminated by rapid filtration under vacuum through GF/C filters, presoaked for 90 min with PEI (0.3%), with 3×0.5 ml washes of ice-cold Tris buffer (50 mM, pH 7.4) containing 0.1% BSA. The radioactivity retained on the filters was measured by scintillation counting. All assays were performed in duplicate in at least two separate experiments.

Chain of human NK1 receptor (P25103 whole entry): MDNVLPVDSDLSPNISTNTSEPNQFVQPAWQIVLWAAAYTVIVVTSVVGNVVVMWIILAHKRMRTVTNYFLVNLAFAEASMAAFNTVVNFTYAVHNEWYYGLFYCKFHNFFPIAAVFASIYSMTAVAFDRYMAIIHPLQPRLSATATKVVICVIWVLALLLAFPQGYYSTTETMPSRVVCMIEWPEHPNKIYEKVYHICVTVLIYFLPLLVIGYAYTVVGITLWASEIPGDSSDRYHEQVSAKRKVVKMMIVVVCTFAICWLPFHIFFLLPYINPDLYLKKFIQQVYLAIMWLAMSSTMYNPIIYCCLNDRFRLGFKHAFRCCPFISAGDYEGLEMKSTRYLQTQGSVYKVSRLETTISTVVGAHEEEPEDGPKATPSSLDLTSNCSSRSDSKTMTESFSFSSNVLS

Ki (human NK1 receptor) [nM]	Ki [1] [nM]	Compound
2.82	6.17	CN(C(=O)C(C)(C)c1cc(C(F)(F)F)cc(C(F)(F)F)c1)c1cnc(NCC(O)CO)cc1-c1ccccc1Cl (racemic) [Example 78, (RS)-2-(3,5-Bis-trifluoromethyl-phenyl)-N-[4-(2-chloro-phenyl)-6-(2,3-dihydroxy-propylamino)-pyridin-3-yl]-N-methyl-isobutyramide]
2.63	13.8	Cc1cc(F)ccc1-c1cc(N2CCC(O)C2)ncc1N(C)C(=O)C(C)(C)c1cc(C(F)(F)F)cc(C(F)(F)F)c1 (racemic) [Example 110, (RS)-2-(3,5-Bis-trifluoromethyl-phenyl)-N-[4-(4-fluoro-2-methyl-phenyl)-6-(3-hydroxy-pyrrolidin-1-yl)-pyridin-3-yl]-N-methyl-isobutyramide]
6.46	18.6	CN(C(=O)C(C)(C)c1cc(C(F)(F)F)cc(C(F)(F)F)c1)c1cnc(N2CCCCC2CO)cc1-c1ccccc1Cl (racemic) [Example 141, (RS)-2-(3,5-Bis-trifluoromethyl-phenyl)-N-[4′-(2-chloro-phenyl)-2-hydroxymethyl-3,4,5,6-tetrahydro-2H-[1,2′]bipyridinyl-5′-yl]-N-methyl-isobutyramide]
1.15	27.5	CN(C(=O)C(C)(C)c1cc(C(F)(F)F)cc(C(F)(F)F)c1)c1cnc(N[C@@H]2CCCC[C@H]2O)cc1-c1ccccc1Cl (racemic) [Example 151, (1RS,2RS)-2-(3,5-Bis-trifluoromethyl-phenyl)-N-[4-(2-chloro-phenyl)-6-(2-hydroxy-cyclohexylamino)-pyridin-3-yl]-N-methyl-isobutyramide]
1.95	9.12	Cc1cc(F)ccc1-c1cc(N2CCC(S(C)(=O)=O)C2)ncc1N(C)C(=O)C(C)(C)c1cc(C(F)(F)F)cc(C(F)(F)F)c1 (racemic) [Example 170, (RS)-2-(3,5-Bis-trifluoromethyl-phenyl)-N-[4-(4-fluoro-2-methyl-phenyl)-6-(3-methanesulfonyl-pyrrolidin-1-yl)-pyridin-3-yl]-N-methyl-isobutyramide]
3.72	24.5	CN(C(=O)C(C)(C)c1cc(C(F)(F)F)cc(C(F)(F)F)c1)c1cnc(N2CCC(CO)C2)cc1-c1ccccc1Cl (racemic) [Example 171, (RS)-2-(3,5-Bis-trifluoromethyl-phenyl)-N-[4-(2-chloro-phenyl)-6-(3-hydroxymethyl-pyrrolidin-1-yl)-pyridin-3-yl]-N-methyl-isobutyramide]
2.09	26.3	Cc1ccccc1-c1cc(N2CCOC(CO)C2)ncc1N(C)C(=O)C(C)(C)c1cc(C(F)(F)F)cc(C(F)(F)F)c1 (racemic) [Example 176, (RS)-2-(3,5-Bis-trifluoromethyl-phenyl)-N-[6-(2-hydroxymethyl-morpholin-4-yl)-4-o-tolyl-pyridin-3-yl]-N-methyl-isobutyramide]
1.2	2.63	Cc1cc(F)ccc1-c1cc(N2CCS(=O)(=O)CC2CO)ncc1N(C)C(=O)C(C)(C)c1cc(C(F)(F)F)cc(C(F)(F)F)c1 (racemic) [Example 177, (RS)-2-(3,5-Bis-trifluoromethyl-phenyl)-N-[4-(4-fluoro-2-methyl-phenyl)-6-(3-hydroxymethyl-1,1-dioxo-1λ^6-thiomorpholin-4-yl)-pyridin-3-yl]-N-methyl-isobutyramide]
0.933	3.47	Cc1ccccc1-c1cc(N2CCS(=O)(=O)CC2CO)ncc1N(C)C(=O)C(C)(C)c1cc(C(F)(F)F)cc(C(F)(F)F)c1 (racemic) [Example 178, (RS)-2-(3,5-Bis-trifluoromethyl-phenyl)-N-[6-(3-hydroxymethyl-1,1-dioxo-1λ^6-thiomorpholin-4-yl)-4-o-tolyl-pyridin-3-yl]-N-methyl-isobutyramide]
1.55	32.4	Cc1ccccc1-c1cc(N2CC[C@H](O)[C@H](O)C2)ncc1N(C)C(=O)C(C)(C)c1cc(C(F)(F)F)cc(C(F)(F)F)c1 (racemic) [Example 185, (3RS,4SR)-2-(3,5-Bis-trifluoromethyl-phenyl)-N-(3,4-dihydroxy-4′-o-tolyl-3,4,5,6-tetrahydro-2H-[1,2′]bipyridinyl-5′-yl)-N-methyl-isobutyramide]
1.41	12.3	Cc1ccccc1-c1cc(N2CC[C@@H](O)[C@H](O)C2)ncc1N(C)C(=O)C(C)(C)c1cc(C(F)(F)F)cc(C(F)(F)F)c1 (racemic) [Example 186, (3RS,4RS)-2-(3,5-Bis-trifluoromethyl-phenyl)-N-(3,4-dihydroxy-4′-o-tolyl-3,4,5,6-tetrahydro-2H-[1,2′]bipyridinyl-5′-yl)-N-methyl-isobutyramide]
1.66	25.7	CN(C(=O)C(C)(C)c1cc(C(F)(F)F)cc(C(F)(F)F)c1)c1cnc(N2CC[C@H](O)[C@H](O)C2)cc1-c1ccccc1Cl (racemic) [Example 187, (3RS,4SR)-2-(3,5-Bis-trifluoromethyl-phenyl)-N-[4′-(2-chloro-phenyl)-3,4-dihydroxy-3,4,5,6-tetrahydro-2H-[1,2′]bipyridinyl-5′-yl]-N-methyl-isobutyramide]
1.32	15.5	CN(C(=O)C(C)(C)c1cc(C(F)(F)F)cc(C(F)(F)F)c1)c1cnc(N2CC[C@@H](O)[C@H](O)C2)cc1-c1ccccc1Cl (racemic) [Example 188, (3RS,4RS)-2-(3,5-Bis-trifluoromethyl-phenyl)-N-[4′-(2-chloro-phenyl)-3,4-dihydroxy-3,4,5,6-tetrahydro-2H-[1,2′]bipyridinyl-5′-yl]-N-methyl-isobutyramide]
1.51	3.98	CN(C(=O)C(C)(C)c1cc(C(F)(F)F)cc(C(F)(F)F)c1)c1cnc(N2CC[C@H](O)C[C@@H]2CO)cc1-c1ccccc1Cl (racemic) [Example 189, (2RS,4SR)-2-(3,5-Bis-trifluoromethyl-phenyl)-N-[4′-(2-chloro-phenyl)-4-hydroxy-2-hydroxymethyl-3,4,5,6-tetrahydro-2H-[1,2′]bipyridinyl-5′-yl]-N-methyl-isobutyramide]
1.58	4.07	Cc1ccccc1-c1cc(N2CC[C@H](O)C[C@@H]2CO)ncc1N(C)C(=O)C(C)(C)c1cc(C(F)(F)F)cc(C(F)(F)F)c1 (racemic) [Example 190, (2RS,4SR)-2-(3,5-Bis-trifluoromethyl-phenyl)-N-(4-hydroxy-2-hydroxymethyl-4′-o-tolyl-3,4,5,6-tetrahydro-2H-[1,2′]bipyridinyl-5′-yl)-N-methyl-isobutyramide]
2.04	24.5	Cc1ccccc1-c1cc(N2CC[C@H](O)[C@@H](CO)C2)ncc1N(C)C(=O)C(C)(C)c1cc(C(F)(F)F)cc(C(F)(F)F)c1 (racemic) [Example 191, (3RS,4SR)-2-(3,5-Bis-trifluoromethyl-phenyl)-N-(4-hydroxy-3-hydroxymethyl-4′-o-tolyl-3,4,5,6-tetrahydro-2H-[1,2′]bipyridinyl-5′-yl)-N-methyl-isobutyramide]
3.02	34.7	Cc1ccccc1-c1cc(N2CC[C@@H](O)[C@@H](CO)C2)ncc1N(C)C(=O)C(C)(C)c1cc(C(F)(F)F)cc(C(F)(F)F)c1 (racemic) [Example 192, (3RS,4RS)-2-(3,5-Bis-trifluoromethyl-phenyl)-N-(4-hydroxy-3-hydroxymethyl-4′-o-tolyl-3,4,5,6-tetrahydro-2H-[1,2′]bipyridinyl-5′-yl)-N-methyl-isobutyramide]
1.45	12	CN(C(=O)C(C)(C)c1cc(C(F)(F)F)cc(C(F)(F)F)c1)c1cnc(N2CC[C@H](O)[C@@H](CO)C2)cc1-c1ccccc1Cl (racemic) [Example 193, (3RS,4SR)-2-(3,5-Bis-trifluoromethyl-phenyl)-N-[4′-(2-chloro-phenyl)-4-hydroxy-3-hydroxymethyl-3,4,5,6-tetrahydro-2H-[1,2′]bipyridinyl-5′-yl]-N-methyl-isobutyramide]
1.66	17.4	CN(C(=O)C(C)(C)c1cc(C(F)(F)F)cc(C(F)(F)F)c1)c1cnc(N2CC[C@@H](O)[C@@H](CO)C2)cc1-c1ccccc1Cl (racemic) [Example 194, (3RS,4RS)-2-(3,5-Bis-trifluoromethyl-phenyl)-N-[4′-(2-chloro-phenyl)-4-hydroxy-3-hydroxymethyl-3,4,5,6-tetrahydro-2H-[1,2′]bipyridinyl-5′-yl]-N-methyl-isobutyramide]
1.82	28.8	CN(C(=O)C(C)(C)c1cc(C(F)(F)F)cc(C(F)(F)F)c1)c1cnc(N2CCC[C@@H](O)[C@H]2CO)cc1-c1ccccc1Cl (racemic) [Example 195, (2RS,3RS)-2-(3,5-Bis-trifluoromethyl-phenyl)-N-[4′-(2-chloro-phenyl)-3-hydroxy-2-hydroxymethyl-3,4,5,6-tetrahydro-2H-[1,2′]bipyridinyl-5′-yl]-N-methyl-isobutyramide]
